Tests used:
Assay type in all cases: cell-based
[1] = Effect on proliferation of cells, Cell Titer-Glo, 72 hours; details: Mus musculus, BaF3 cells
Procedure: The compounds of the present invention were tested for their effect on growth of cancer cells (Table 2), to further evaluate the compounds herein for their inhibitory effect on proliferation of cancer cells and their selectivity in inhibiting proliferation of cancer cells. […]
(§1) In the example, solutions of the test compound in DMSO at different concentrations (0.000508 μM, 0.00152 μM, 0.00457 μM, 0.0137 μM, 0.0411 μM, 0.123 μM, 0.370 μM, 1.11 μM, 3.33 μM, 10 μM) was added to the above cells respectively. The cells were incubated for 72 hours. The number of viable cells was detected with a Cell Titer-Glo (Promega, USA) Cell Viability Assay Kit by quantifying the ATP in viable cells. The values of GI50 (unit) of the compounds of the present invention against each of the test cells were determined.

[2] = tested on: melanoma cell A375 (expressing BRAF-V600E mutant kinase); assay: Effect on proliferation of cancer cells, Cell Titer-Glo, 72 hours; details: Homo sapiens, A-375
Procedure: (§2) The compounds of the present invention were tested for their effect on growth of cancer cells (Table 2), to further evaluate the compounds herein for their inhibitory effect on proliferation of cancer cells and their selectivity in inhibiting proliferation of cancer cells.
(§3) The cells were incubated for 72 hours. The number of viable cells was detected with a Cell Titer-Glo (Promega, USA) Cell Viability Assay Kit by quantifying the ATP in viable cells. The values of GI50 (unit) of the compounds of the present invention against each of the test cells were determined.

[3] = tested on: mouse BaF3-FL-BRAF-V600E (stably expressing full-length BRAF-V600E mutant kinase); assay: as above
Procedure: as §2, §3

[4] = tested on: colorectal cancer cell COLO205 (expressing BRAF-V600E mutant kinase); assay: as above; details: Homo sapiens, COLO 205
Procedure: as §2, §3

[5] = tested on: human acute leukemia cell NB4 (expressing KRAS-A18D mutant kinase); assay: as above; details: NB-4
Procedure: as §2
(§4) The above-mentioned BaF3-FL-BRAF-V600E mutant cell line was constructed by the method as follows. The sequence of human full-length BRAF-V600E mutant kinase region was amplified by PCR, inserted into a MSCV-Puro vector (purchased from Clontech), and stably transfected into mouse BaF3 cells by the retroviral method, and the growth factor IL-3 was removed. Eventually, a cell line dependent on a full-length BRAF-V600E protein having various mutation transferred was obtained.
as §1

[6] = tested on: human acute leukemia cell OCI-AML-3 (expressing NRAS-Q61L mutant kinase); assay: as above; details: OCI-AML-3 cells
Procedure: as §2, §4, §1

Compound | GI50 [1] [nM] | GI50 [2] [nM] | GI50 [3] [nM] | GI50 [4] [nM] | GI50 [5] [nM] | GI50 [6] [nM]
Cc1ccc(NC(=O)c2cccc(C(F)(F)F)c2)cc1-n1cc(-c2cncc(OCCCN3CCOCC3)c2)cn1 [Example 48, N-(4-methyl-3-(4-(5-(3-morpholinopropoxy)pyrid-3-yl)-1H-pyrazol-1-yl)phenyl)-3-(trifluoromethyl)benzamide] | 520 | 14 | 4.1 | 32 |  | 
Cc1ccc(NC(=O)Cc2cccc(C(F)(F)F)c2)cc1-n1cc(-c2cncc(OCCCN3CCOCC3)c2)cn1 [Example 49, N-(4-methyl-3-(4-(5-(3-morpholinopropoxy)pyrid-3-yl)-1H-pyrazol-1-yl)phenyl)-2-(3-(trifluoromethyl)phenyl)acetamide] | 500 | 41 | 7.2 | 52 |  | 
Cc1ccc(NC(=O)c2cccc(C(C)(C)C#N)c2)cc1-n1cc(-c2cnccc2OC2CCOCC2)cn1 [Example 56, 3-(2-cyanoprop-2-yl)-N-(4-methyl-3-(4-(4-((tetrahydro-2H-pyran-4-yl)oxy)pyrid-3-yl)-1H-pyrazol-1-yl)phenyl)benzamide] | 4100 | 77 | < 0.3 | 119 |  | 
Cc1ccc(NC(=O)c2cccc(C(C)(C)C#N)c2)cc1-n1cc(-c2cncc(OCC3CCOC3)c2)cn1 (centres unmarked) [Example 65, 3-(2-cyanoprop-2-yl)-N-(4-methyl-3-(4-(5-((tetrahydrofuran-3-yl)methoxy)pyrid-3-yl)-1H-pyrazol-1-yl)phenyl)benzamide] | 1700 | 16 | 1.3 | 35 |  | 
Cc1ccc(NC(=O)c2cccc(C(F)(F)F)c2)cc1-n1cc(-c2cncc(OCC3CCOC3)c2)cn1 (centres unmarked) [Example 66, N-(4-methyl-3-(4-(5-((tetrahydrofuran-3-yl)methoxy)pyrid-3-yl)-1H-pyrazol-1-yl)phenyl)-3-(trifluoromethyl)benzamide] | 3000 | 71 | 18 | 230 |  | 
Cc1ccc(NC(=O)c2cccc(C(C)(C)C#N)c2)cc1-n1cc(-c2cnccc2OC2CCOC2)cn1 (centres unmarked) [Example 68, 3-(2-cyanoprop-2-yl)-N-(4-methyl-3-(4-(4-((tetrahydrofuran-3-yl)oxy)pyrid-3-yl)-1H-pyrazol-1-yl)phenyl)benzamide] | 1800 | 27 | 4.3 | 66 |  | 
Cc1ccc(NC(=O)c2cccc(C(F)(F)F)c2)cc1-n1cc(-c2cnccc2OC2CCOC2)cn1 (centres unmarked) [Example 69, N-(4-methyl-3-(4-(4-((tetrahydrofuran-3-yl)oxy)pyrid-3-yl)-1H-pyrazol-1-yl)phenyl)-3-(trifluoromethyl)benzamide] | 1200 | 35 | 16 | 61 |  | 
Cc1ccc(NC(=O)Cc2cccc(C(F)(F)F)c2)cc1-n1cc(-c2cncc(-c3ccncc3)c2)cn1 [Example 71, N-(3-(4-([3,4′-bipyrid]-5-yl)-1H-pyrazol-1-yl)-4-methylphenyl)-2-(3-(trifluoromethyl)phenyl)acetamide] | 1100 | 79 | 28 | 56 |  | 
Cc1ccc(NC(=O)c2cccc(C(C)(C)C#N)c2)cc1-n1cc(-c2cnccc2OCC2CCOCC2)cn1 [Example 72, 3-(2-cyanoprop-2-yl)-N-(4-methyl-3-(4-(4-((tetrahydro-2H-pyran-4-yl)methoxy)pyrid-3-yl)-1H-pyrazol-1-yl)phenyl)benzamide] | 5800 | 34 | 5.6 | 100 |  | 
Cc1ccc(NC(=O)c2cccc(C(C)(C)C#N)c2)cc1-n1cc(-c2cnccc2OC2COC2)cn1 [Example 79, 3-(2-cyanoprop-2-yl)-N-(4-methyl-3-(4-(4-(oxetan-3-yloxy)pyrid-3-yl)-1H-pyrazol-1-yl)phenyl)benzamide] | 4800 | 61 | < 0.3 | 57 |  | 
Cc1ccc(NC(=O)c2cccc(C(F)(F)F)c2)cc1-n1cc(-c2cnccc2OC2COC2)cn1 [Example 82, N-(4-methyl-3-(4-(4-(oxetan-3-yloxy)pyrid-3-yl)-1H-pyrazol-1-yl)phenyl)-3-(trifluoromethyl)benzamide] | 3200 | 97 | 4 | 83 |  | 
Cc1ccc(NC(=O)c2cccc(C(C)(C)C#N)c2)cc1-n1cc(-c2cncc(OC3COC3)c2)cn1 [Example 84, 3-(2-cyanoprop-2-yl)-N-(4-methyl-3-(4-(5-(oxetan-3-yloxy)pyrid-3-yl)-1H-pyrazol-1-yl)phenyl)benzamide] | 8600 | 99 | < 0.3 | 130 |  | 
Cc1ccc(NC(=O)c2cccc(C(C)(C)C#N)c2)cc1-n1cc(-c2cnccc2OCC2COC2)cn1 [Example 87, 3-(2-cyanoprop-2-yl)-N-(4-methyl-3-(4-(4-(oxetan-3-ylmethoxy)pyrid-3-yl)-1H-pyrazol-1-yl)phenyl)benzamide] | 2500 | 36 | < 0.3 | 65 |  | 
COCCOc1ccncc1-c1cnn(-c2cc(NC(=O)c3cccc(C(C)(C)C#N)c3)ccc2C)c1 [Example 159, 3-(2-cyanoprop-2-yl)-N-(3-(4-(4-(2-methoxyethoxy)pyrid-3-yl)-1H-pyrazol-1-yl)-4-methylphenyl)benzamide] | 5200 | 22 | 6.6 | 36 | 160 | 23
Cc1ccc(NC(=O)c2cccc(C(C)(C)C#N)c2)cc1-n1cc(-c2cnccc2OCCCO)cn1 [Example 161, 3-(2-cyanoprop-2-yl)-N-(3-(4-(4-(3-hydorxypropoxy)pyrid-3-yl)-1H-pyrazol-1-yl)-4-methylphenyl)benzamide] | 3600 | 14 | 2.3 | 55 | 95 | 12
Cc1ccc(NC(=O)c2cccc(C(F)(F)F)c2)cc1-n1cc(-c2cnccc2OCCCO)cn1 [Example 162, N-(3-(4-(4-(3-hydoxypropoxy)pyrid-3-yl)-1H-pyrazol-1-yl)-4-methylphenyl)-3-(trifluoromethyl)benzamide] | 5000 | 32 | 3.9 | 39 | 61 | 11
Cc1ccc(NC(=O)c2cccc(C(C)(C)C#N)c2)cc1-n1cc(-c2cncc(N3CCNCC3)c2)cn1 [Example 163, 3-(2-cyanoprop-2-yl)-N-(4-methyl-3-(4-(5-(piperizan-1-yl)pyrid-3-yl)1H-pyrazol-1-yl)phenyl)benzamide] | 1600 | 160 | 18 | 39 | 44 | 10
Cc1ccc(NC(=O)c2cccc(C(F)(F)F)c2)cc1-n1cc(-c2cncc(N3CCNCC3)c2)cn1 [Example 164, N-(4-methyl-3-(4-(5-(piperizan-1-yl)pyrid-3-yl)-1H-pyrazol-1-yl)phenyl)-3-(trifluoromethyl)benzamide] | 1600 | 120 | 4 | 71 | 35 | 9.1
Cc1ccc(NC(=O)c2cccc(C(C)(C)C#N)c2)cc1-n1cc(-c2cnccc2OCCCCO)cn1 [Example 165, 3-(2-cyanoprop-2-yl)-N-(3-(4-(4-(4-hydroxybutoxy)pyrid-3-yl)-1H-pyrazol-1-yl)-4-methylphenyl)benzamide] | 1800 | 40 | < 0.3 | 190 | 75 | 14
Cc1ccc(NC(=O)c2cccc(C(F)(F)F)c2)cc1-n1cc(-c2cnccc2OCCCCO)cn1 [Example 166, N-(3-(4-(4-(4-hydroxybutoxy)pyrid-3-yl)-1H-pyrazol-1-yl)-4-methylphenyl)-3-(trifluoromethyl)benzamide] | 2600 | 77 | 1 | 94 | 69 | 19
Cc1ccc(NC(=O)c2cccc(Cl)c2)cc1-n1cc(-c2cccnc2)cn1 [compound 2, 3-chloro-N-(4-methyl-3-(4-(pyrid-3-yl)-1H-pyrazol-1-yl)phenyl)benzamide, reference compound] | 9300 | 1600 | 240 | 3300 |  | 

Source: US12115152B2, “Pan-RAF kinase inhibitor and use thereof” (HEFEI INSTITUTES OF PHYSICAL SCIENCE, CHINESE ACADEMY OF …, priority 2019, dated 2024)
